Experimental data published in patent US8404670B2 (Sunovion Pharmaceuticals Inc., priority 2009, dated 2013).

Molecular target: T1, human histamine H3 receptor (Homo sapiens, UniProt Q9Y5N1)
T1 construct: host or cells: cells expressing the human H3 receptor
Assay: H3 GTPγS assay (SPA method), histamine H3 in vitro assay
Assay type: biochemical
Conditions: GTPγ[35S] binding to membranes of cells expressing human H3; antagonist mode with R-γ-Me-Histamine at EC80 (30 nM); in one embodiment HCl salts tested; read-out: Potency (functional potency as indicated by IC50)
Description: H3 GTPγS assay (SPA method) was performed at EuroScreen (Belgium, ES-392-C) using conventional methods. Briefly, cells expressing the human histamine H3 receptor were homogenized in 15 mM Tris-HCl pH 7.5, 2 mM MgCl2, 0.3 mM EDTA, and 1 mM EGTA. Membranes were washed twice in the above tris buffer, collected by centrifugation (40,000×g, 25 min), and re-suspended in 75 mM Tris-HCl pH 7.5, 12.5 mM MgCl2, 0.3 mM EDTA, 1 mM EGTA, and 250 mM sucrose. Membranes were frozen in liquid nitrogen until use. On the day of the assay, membranes were thawed and diluted in assay buffer (20 mM HEPES pH 7.4, 100 mM NaCl, 10 μg/ml saponin, 1 mM MgCl2) to give 500 μg/ml and mixed (v/v) with GDP in assay buffer for a final GDP concentration of 10 μM and incubated on ice for at least 15 min. PVT-WGA beads (Amersham, RPNQ001) were diluted in assay buffer at 50 mg/mL and mixed with GTPγ[^35S] (Amersham, SJ1308) diluted in assay buffer to give ˜25,000 dpm/10 μL and mixed vol/vol just before the start of the reaction. The reaction was started by adding 50 μL of test compound, 20 μL of the membranes:GDP mix, 10 μL of buffer, and 20 μL of the GTPγ[^35S]:beads mix in a 96 well plate Optiplate™ (PerkinElmer, 6005299) covered with topseal (TopCount™, PerkinElmer), mixed with an orbital shaker for 2 min, incubated for 1 hour at room temperature, centrifuged for 10 min at 2000 rpm, incubated for 1 h at room temperature, and counted for 1 min in a TopCount™ reader (PerkinElmer). Dose response curves and IC50 values (concentration to inhibit the reaction by 50%) were calculated by nonlinear regression using XLfit software (IDBS).
For antagonists testing, 10 μL of a reference agonist (R-γ-Me-Histamine) instead of 10 μL buffer was added at a concentration corresponding to the EC80 (30 nM). Control ligands were R-γ-Me-Histamine (Tocris, 0569), Imetit (Sigma, I-135), Thioperamide (Tocris, 0644), and Clobenpropit (Tocris, 0754) diluted in assay buffer.
The compounds provided herein were tested in the histamine H3 in vitro assay. In one embodiment, the respective HCl salts of the compounds provided herein were prepared using standard chemical procedures and tested in the histamine H3 in vitro assay.

T1 sequence (Q9Y5N1 whole entry): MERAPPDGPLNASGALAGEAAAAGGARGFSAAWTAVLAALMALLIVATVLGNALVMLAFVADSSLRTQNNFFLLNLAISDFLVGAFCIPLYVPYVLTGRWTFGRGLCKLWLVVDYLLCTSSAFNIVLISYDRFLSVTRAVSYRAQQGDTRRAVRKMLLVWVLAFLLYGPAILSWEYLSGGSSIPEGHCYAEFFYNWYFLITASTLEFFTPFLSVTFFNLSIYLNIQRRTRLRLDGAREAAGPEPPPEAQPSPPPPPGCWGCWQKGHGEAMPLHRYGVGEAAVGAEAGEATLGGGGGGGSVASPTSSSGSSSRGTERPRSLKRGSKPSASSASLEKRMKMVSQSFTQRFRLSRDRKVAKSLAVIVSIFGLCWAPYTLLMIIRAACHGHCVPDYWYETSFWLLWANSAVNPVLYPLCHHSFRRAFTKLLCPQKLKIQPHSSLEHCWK

SMILES | IC50 [µM]
CN1CCN(C(=O)c2ccc3c(c2)nc2n3CCN(C3CCC3)CC2)CC1 [Compound 58] | ≤ 1
c1cc2c(cc1-c1ccc3c(c1)nc1n3CCN(C3CCC3)CC1)OCO2 [Compound 210, 8-(benzo[d][1,3]dioxol-5-yl)-3-cyclobutyl-2,3,4,5-tetrahydro-1H-benzo[4,5]imidazo[1,2-d][1,4]diazepine] | ≤ 0.01
c1cc2c(cc1N1CCN(C3CCOC3)CC1)nc1n2CCN(C2CCC2)CC1 (racemic) [Compound 101, rac-3-cyclobutyl-9-(4-(tetrahydrofuran-3-yl)piperazin-1-yl)-2,3,4,5-tetrahydro-1H-[1,4]diazepino[1,7-a]benzimidazole] | ≤ 0.01
CC(C)(C)c1ccc(-c2ccc3c(c2)nc2n3CCN(C3CCC3)CC2)cc1 [Compound 212, 8-(4-(tert-butyl)phenyl)-3-cyclobutyl-2,3,4,5-tetrahydro-1H-benzo[4,5]imidazo[1,2-d][1,4]diazepine] | ≤ 0.01
N#Cc1ccc(CNc2ccc3nc4n(c3c2)CCN(C2CCC2)CC4)cc1 [Compound 81] | ≤ 0.1
c1cc2c(cc1N1CCN(C3CCCCC3)CC1)nc1n2CCN(C2CCC2)CC1 [Compound 102] | ≤ 0.01
CN1CCN(c2cccc(-c3ccc4c(c3)nc3n4CCN(C4CCC4)CC3)n2)CC1 [Compound 136, 3-cyclobutyl-8-(6-(4-methylpiperazin-1-yl)pyridin-2-yl)-2,3,4,5-tetrahydro-1H-benzo[4,5]imidazo[1,2-d][1,4]diazepine] | ≤ 0.1
c1cc2ccc(-c3ccc4c(c3)nc3n4CCN(C4CCC4)CC3)nc2[nH]1 [Compound 196, 3-cyclobutyl-8-(1H-pyrrolo[2,3-b]pyridin-6-yl)-2,3,4,5-tetrahydro-1H-benzo[4,5]imidazo[1,2-d][1,4]diazepine] | ≤ 0.1
c1cnc(N2Cc3cc4nc5n(c4cc3C2)CCN(C2CCC2)CC5)cn1 [Compound 149, 8-cyclobutyl-2-(pyrazin-2-yl)-1,2,3,6,7,8,9,10-octahydro-[1,4]diazepino[1′,7′:1,2]imidazo[4,5-f]isoindole] | ≥ 1
c1cnc(OCc2ccc3c(c2)nc2n3CCN(C3CCC3)CC2)cn1 [Compound 109] | ≤ 0.01
FC1(F)CCN(c2ccc3c(c2)nc2n3CCN(C3CCC3)CC2)C1 [Compound 182, 3-cyclobutyl-8-(3,3-difluoropyrrolidin-1-yl)-2,3,4,5-tetrahydro-1H-benzo[4,5]imidazo[1,2-d][1,4]diazepine] | ≤ 0.1
COc1ccnc(Nc2ccc3nc4n(c3c2)CCN(C2CCC2)CC4)n1 [Compound 80] | ≤ 1
c1cc2c(cc1-c1cnc3[nH]ncc3c1)nc1n2CCN(C2CCC2)CC1 [Compound 223, 3-cyclobutyl-8-(1H-pyrazolo[3,4-b]pyridin-5-yl)-2,3,4,5-tetrahydro-1H-benzo[4,5]imidazo[1,2-d][1,4]diazepine] | ≤ 0.01
c1cc2c(cc1N1CCCC1)nc1n2CCN(C2CCC2)CC1 [Compound 226, 3-cyclobutyl-8-(pyrrolidin-1-yl)-2,3,4,5-tetrahydro-1H-benzo[4,5]imidazo[1,2-d][1,4]diazepine] | ≤ 0.1
N#Cc1ccc(-c2cnc3c(c2)nc2n3CCN(C3CCC3)CC2)cc1 [Compound 237, 4-(7-aza-3-cyclobutyl-2,3,4,5-tetrahydro-1H-[1,4]diazepino[1,7-a]benzimidazol-9-yl)benzonitrile] | ≤ 0.1
N#Cc1ccc(COc2ccc3c(c2)nc2n3CCN(C3CCC3)CC2)cc1 [Compound 53] | ≤ 0.01
c1cnn(-c2ccc3c(c2)nc2n3CCN(C3CCC3)CC2)n1 [Compound 151, 3-cyclobutyl-8-(2H-1,2,3-triazol-2-yl)-2,3,4,5-tetrahydro-1H-benzo[4,5]imidazo[1,2-d][1,4]diazepine] | ≤ 0.1
c1cnc(Oc2ccc3c(c2)nc2n3CCN(C3CCC3)CC2)cn1 [Compound 51] | ≤ 0.1
c1cc2cc(-c3ccc4nc5n(c4c3)CCN(C3CCC3)CC5)ccc2[nH]1 [Compound 43] | ≤ 1

SMILES | IC50 [µM]
c1cnc(N2CCc3cc4nc5n(c4cc3C2)CCN(C2CCC2)CC5)nc1 [Compound 193, 9-cyclobutyl-2-(pyrimidin-2-yl)-2,3,4,7,8,9,10,11-octahydro-1H-[1,4]diazepino[1′,7′:1,2]imidazo[4,5-g]isoquinoline] | ≤ 0.1
c1cnc(OCc2ccc3nc4n(c3c2)CCN(C2CCC2)CC4)cn1 [Compound 113, 3-cyclobutyl-9-((pyrazin-2-yloxy)methyl)-2,3,4,5-tetrahydro-1H-[1,4]diazepino[1,7-a]benzimidazole] | ≤ 1
OCc1ccc2c(c1)nc1n2CCN(C2CCC2)CC1 [Compound 106, 2-(3-cyclobutyl-2,3,4,5-tetrahydro-1H-[1,4]diazepino[1,7-a]benzimidazol-9-yl)methanol] | ≤ 1
c1ccc2c(c1)cnn2-c1ccc2c(c1)nc1n2CCN(C2CCC2)CC1 [Compound 69] | ≤ 0.1
FC1(F)CCN(c2ccc3c(c2)nc2n3CCN(C3CCC3)CC2)CC1 [Compound 178, 3-cyclobutyl-8-(4,4-difluoropiperidin-1-yl)-2,3,4,5-tetrahydro-1H-benzo[4,5]imidazo[1,2-d][1,4]diazepine] | ≤ 0.1
FC1CCN(c2ccc3c(c2)nc2n3CCN(C3CCC3)CC2)CC1 [Compound 179, 3-cyclobutyl-8-(4-fluoropiperidin-1-yl)-2,3,4,5-tetrahydro-1H-benzo[4,5]imidazo[1,2-d][1,4]diazepine] | ≤ 0.01
c1cnc(N2CCCC(c3ccc4c(c3)nc3n4CCN(C4CCC4)CC3)C2)cn1 (stereo not shown) [Compound 129, 3-cyclobutyl-8-(1-(pyrazin-2-yl)piperidin-3-yl)-2,3,4,5-tetrahydro-1H-benzo[4,5]imidazo[1,2-d][1,4]diazepine] | ≤ 0.01
OC(c1ccc2c(c1)nc1n2CCN(C2CCC2)CC1)c1cnccn1 (stereo not shown) [Compound 120, (3-cyclobutyl-2,3,4,5-tetrahydro-1H-benzo[4,5]imidazo[1,2-d][1,4]diazepin-8-yl)(pyrazin-2-yl)methanol] | ≤ 0.1
c1ccc2c(c1)ncn2-c1ccc2c(c1)nc1n2CCN(C2CCC2)CC1 [Compound 68] | ≤ 0.01
c1cnc(Nc2ccc3c(c2)nc2n3CCN(C3CCC3)CC2)cn1 [Compound 65, 3-cyclobutyl-N-(pyrazin-2-yl)-2,3,4,5-tetrahydro-1H-[1,4]diazepino[1,7-a]benzimidazol-9-amine] | ≤ 0.1
c1cc2nc(-c3ccc4c(c3)nc3n4CCN(C4CCC4)CC3)cnc2[nH]1 [Compound 199, 3-cyclobutyl-8-(5H-pyrrolo[2,3-b]pyrazin-2-yl)-2,3,4,5-tetrahydro-1H-benzo[4,5]imidazo[1,2-d][1,4]diazepine] | ≤ 0.1
c1cc2c(cc1-c1cncc(N3CCCC3)n1)nc1n2CCN(C2CCC2)CC1 [Compound 94, 3-cyclobutyl-9-(6-(pyrrolidin-1-yl)pyrazin-2-yl)-2,3,4,5-tetrahydro-1H-[1,4]diazepino[1,7-a]benzimidazole] | ≤ 0.1
c1cc2nc3n(c2cc1CN1CCOCC1)CCN(C1CCC1)CC3 [Compound 88, 3-cyclobutyl-8-(morpholin-1-ylmethyl)-2,3,4,5-tetrahydro-1H-[1,4]diazepino[1,7-a]benzimidazole] | ≤ 0.01
CC(=O)Nc1ccc(-c2ccc3c(c2)nc2n3CCN(Cc3cnc[nH]3)CC2)cc1 [Compound 19] | ≥ 1
c1cc2nc(-c3ccc4c(c3)nc3n4CCN(C4CCC4)CC3)ccc2[nH]1 [Compound 197, 3-cyclobutyl-8-(1H-pyrrolo[3,2-b]pyridin-5-yl)-2,3,4,5-tetrahydro-1H-benzo[4,5]imidazo[1,2-d][1,4]diazepine] | ≤ 0.01
Clc1ccc(-c2ccc3c(c2)nc2n3CCN(C3CCC3)CC2)cc1Cl [Compound 211, 3-cyclobutyl-8-(3,4-dichlorophenyl)-2,3,4,5-tetrahydro-1H-benzo[4,5]imidazo[1,2-d][1,4]diazepine] | ≤ 0.1
FC1CCCN(Cc2ccc3c(c2)nc2n3CCN(C3CCC3)CC2)C1 (stereo not shown) [Compound 161, 3-cyclobutyl-8-((3-fluoropiperidin-1-yl)methyl)-2,3,4,5-tetrahydro-1H-benzo[4,5]imidazo[1,2-d][1,4]diazepine] | ≤ 0.01
FC(F)(F)c1ccc(-c2ccc3c(c2)nc2n3CCN(C3CCC3)CC2)cc1 [Compound 213, 3-cyclobutyl-8-(4-(trifluoromethyl)phenyl)-2,3,4,5-tetrahydro-1H-benzo[4,5]imidazo[1,2-d][1,4]diazepine] | ≤ 0.1
